Earlier results in patent US20050205101A1, “Combined pharmocological and surgical method and system for the treatment of eye disorders” (priority 2002, published 2005).
Counter-ions that a name gives are not always drawn.

What was measured:
emmetropic eye = settings: typical concentration of about 4%
presbyopic patient = settings: presbyopia, administration to the eye; Neufeld US 5,488,050
[1] = tested on: intraocular pressure (IOP); settings: used topically, elevated IOP; van Alphen 1976

Compound: CC[C@@H]1C(=O)OC[C@@H]1Cc1cncn1C [Pilocarpine hydrochloride, pilocarpine hydrochloride]
- adverse side effect on refraction (emmetropic eye): becomes myopic
- near and distant vision (emmetropic eye): enhanced near vision but at the sacrifice of distant vision

Compound: CC(C)(C)NC[C@H](O)COc1nsnc1N1CCOCC1 [Timolol]
- tonic accommodation (accommodation in humans; unfocused eyes, subjects with mean age of 23, Nyberg 1976): net increase in tonic accommodation
- vision of presbyopic subject (presbyopic patient): improved
- intraocular pressure (IOP) [1]: lower the IOP

Compound: CC(C)NCC(O)COc1ccc(CCOCC2CC2)cc1 (centres unmarked) [betaxolol]
- intraocular pressure (IOP) [1]: lower the IOP

Compound: CC(C)(C)NC[C@H](O)COc1cccc2c1CCCC2=O [levobunolol]
- intraocular pressure (IOP) [1]: lower the IOP

Compound: CC(=O)Oc1cc(C(C)C)c(OCCN(C)C)cc1C [thymoxamine]
- gain in accommodation (accommodation in humans; treated subjects, Zetterstrom 1987): transient gain in accommodation
